Test results taken from US20040102622A1, “Modulation of hepatocyte growth factor receptor expression” (Isis Pharmaceuticals Inc., priority 2002, published 2004).
Strand notation (5' to 3'): a small letter for the sugar, then the base; units joined by * are phosphorothioate-linked, units joined directly phosphodiester-linked; [ ] holds rarer units or linkages, { } end groups; capitals alone tell only the bases. e = 2'-O-(2-methoxyethyl) (MOE); [5mC] = 5-methylcytosine; d = 2'-deoxy (DNA)
For % INHIB (inhibition of human hepatocyte growth factor receptor mRNA levels) in this document: test concentration or dose not given here.

The substances below were run on human hepatocyte growth factor receptor mRNA (assay: not given). Conditions: not given.
With “ISIS 155101: 2′-MOE gapmer, phosphorothioate backbone, sequence ttcagccacaggaaaaaccc (antisense TTCAGCCACAGGAAAAACCC; all phosphorothioate, sugars by position and methylation of C not given here; 2'-MOE gapmer)” the “inhibition of human hepatocyte growth factor receptor expression” value was “at least 35%”.
In the case of “ISIS 209549: 2′-MOE gapmer, phosphorothioate backbone, sequence cctgagcattactatctctt (antisense CCTGAGCATTACTATCTCTT; all phosphorothioate, sugars by position and methylation of C not given here; 2'-MOE gapmer)”, the “inhibition of human hepatocyte growth factor receptor expression” value is reported as “at least 35%”.
“ISIS 209536: 2′-MOE gapmer, phosphorothioate backbone, sequence cctcccatactagagaagta (antisense CCTCCCATACTAGAGAAGTA; all phosphorothioate, sugars by position and methylation of C not given here; 2'-MOE gapmer)” was tested, and the “inhibition of human hepatocyte growth factor receptor expression” value was “at least 35%”.

These substances were tested on human hepatocyte growth factor receptor mRNA (assay: Inhibition of human hepatocyte growth factor receptor mRNA levels in T-24 cells, quantitative real-time PCR). Conditions: averages from three experiments.
“209543 (antisense eG*eA*eT*eG*e[5mC]*d[5mC]*dA*d[5mC]*d[5mC]*dG*dT*dG*d[5mC]*dA*d[5mC]*eT*eG*eT*eG*e[5mC]) [compound 209543]” was tested, and the “% INHIB (inhibition of human hepatocyte growth factor receptor mRNA levels)” value (from here on “% INHIB”) was 85%.
For “155109 (antisense eA*eG*e[5mC]*eT*e[5mC]*dG*d[5mC]*dT*dG*dT*dT*d[5mC]*dA*dA*dT*eT*eT*e[5mC]*eA*eG) [compound 155109]”, the “% INHIB” value was 80%.
With “209540 (antisense e[5mC]*eA*e[5mC]*eA*eT*d[5mC]*d[5mC]*d[5mC]*dT*dT*dG*dT*dA*dA*dG*eT*eT*eG*eG*eA) [compound 209540]” the “% INHIB” value was 52%.
In the case of “155132 (antisense eG*eA*eT*eT*e[5mC]*d[5mC]*d[5mC]*dT*d[5mC]*dG*dG*dT*d[5mC]*dA*dG*eA*eA*eA*eT*eT) [compound 155132]”, the “% INHIB” value is reported as 39%.
With “209552 (antisense eT*eG*eA*eA*eA*d[5mC]*dT*dT*dT*d[5mC]*dT*dA*dG*dG*dT*eG*eG*eA*eG*eA) [compound 209552]” the “% INHIB” value was 0%.
In the case of “209531 (antisense eT*eA*eA*eG*eT*d[5mC]*dA*dA*dT*dT*dT*dT*d[5mC]*dA*dA*eT*eT*eT*eA*eA) [compound 209531]”, the “% INHIB” value is reported as 13%.
For “209527 (antisense e[5mC]*eG*e[5mC]*eT*eT*d[5mC]*dA*d[5mC]*dA*dG*d[5mC]*d[5mC]*dT*dG*dA*eT*eG*eA*eA*eT) [compound 209527]”, the “% INHIB” value was 81%.
For “155116 (antisense eA*eA*eA*eT*e[5mC]*dT*dT*dT*d[5mC]*dA*dT*dG*dA*dT*dG*eA*eT*eT*e[5mC]*e[5mC]) [compound 155116]”, the “% INHIB” value was 54%.
In the case of “209526 (antisense eT*eT*eG*eA*eT*dA*dG*dG*dG*dA*dA*dT*dG*d[5mC]*dA*e[5mC]*eA*e[5mC]*eA*eT) [compound 209526]”, the “% INHIB” value is reported as 93%.
“209537 (antisense eA*eG*eA*eG*eG*dT*dT*dT*dA*dT*d[5mC]*dT*dG*d[5mC]*d[5mC]*eA*eA*eA*eA*e[5mC]) [compound 209537]” was tested, and the “% INHIB” value was 43%.
In the case of “155113 (antisense e[5mC]*eT*eA*eA*eT*dG*dA*dG*dT*dT*dG*dA*dT*d[5mC]*dA*eT*e[5mC]*eA*eT*eA) [compound 155113]”, the “% INHIB” value is reported as 83%.
With “155114 (antisense eA*eA*eT*eT*eG*dT*dT*dG*d[5mC]*dT*dT*dT*d[5mC]*dA*dA*eA*eG*eG*e[5mC]*eA) [compound 155114]” the “% INHIB” value was 94%.
For “155100 (antisense eA*eG*e[5mC]*eT*eG*dA*dT*dA*d[5mC]*dT*dT*d[5mC]*dA*dT*dA*eT*eT*e[5mC]*eA*e[5mC]) [compound 155100]”, the “% INHIB” value was 0%.
“209551 (antisense e[5mC]*eT*eT*eG*eG*dG*dA*dG*dG*d[5mC]*dG*dA*dG*dT*dG*eT*e[5mC]*eA*e[5mC]*e[5mC]) [compound 209551]” was tested, and the “% INHIB” value was 0%.
“155103 (antisense eT*eG*eG*eG*eA*dA*dG*d[5mC]*dT*dG*dA*dT*dA*d[5mC]*dT*eT*e[5mC]*eA*eT*eA) [compound 155103]” was tested, and the “% INHIB” value was 86%.
For “209541 (antisense eA*e[5mC]*e[5mC]*eA*eA*dG*dT*dA*d[5mC]*dT*dG*dT*dA*dA*dG*eA*eG*eA*eG*eG) [compound 209541]”, the “% INHIB” value was 40%.
In the case of “209549 (antisense e[5mC]*e[5mC]*eT*eG*eA*dG*d[5mC]*dA*dT*dT*dA*d[5mC]*dT*dA*dT*e[5mC]*eT*e[5mC]*eT*eT) [compound 209549]”, the “% INHIB” value is reported as 84%.
With “209528 (antisense eT*eT*eG*eG*eG*dA*dA*dA*dA*d[5mC]*d[5mC]*dT*dT*dG*dT*eA*eG*eA*eT*eT) [compound 209528]” the “% INHIB” value was 42%.
With “155097 (antisense e[5mC]*e[5mC]*eT*e[5mC]*eG*dG*dT*d[5mC]*dA*dG*dA*dA*dA*dT*dT*eG*eG*eG*eA*eA) [compound 155097]” the “% INHIB” value was 53%.
“155118 (antisense e[5mC]*eA*eT*e[5mC]*e[5mC]*dA*dG*d[5mC]*dA*dT*dA*d[5mC]*dA*dG*dT*eT*eT*e[5mC]*eT*eT) [compound 155118]” was tested, and the “% INHIB” value was 55%.
For “155106 (antisense e[5mC]*eA*e[5mC]*eA*eA*d[5mC]*d[5mC]*dT*dG*d[5mC]*dA*dT*dG*dA*dA*eG*e[5mC]*eG*eA*e[5mC]) [compound 155106]”, the “% INHIB” value was 66%.
With “209532 (antisense eA*eG*eT*eA*e[5mC]*dT*dA*dA*dT*dA*dA*dA*dA*dG*dA*eT*eT*eT*eG*eG) [compound 209532]” the “% INHIB” value was 0%.
“209534 (antisense eA*eG*e[5mC]*eA*eT*dT*dA*d[5mC]*dT*dT*d[5mC]*dA*dT*dA*dT*eA*eA*eG*eG*eG) [compound 209534]” was tested, and the “% INHIB” value was 35%.
With “155117 (antisense eG*eT*eA*eG*eA*dT*dT*dG*d[5mC]*dA*dG*dG*d[5mC]*dA*dG*eA*e[5mC]*eA*eG*eA) [compound 155117]” the “% INHIB” value was 75%.
For “209533 (antisense e[5mC]*eA*e[5mC]*e[5mC]*eA*d[5mC]*dT*dG*dG*d[5mC]*dA*dA*dA*dG*d[5mC]*eA*eA*eA*eA*eT) [compound 209533]”, the “% INHIB” value was 47%.
In the case of “155122 (antisense eA*eA*eG*e[5mC]*e[5mC]*dT*dA*dT*d[5mC]*d[5mC]*dA*dA*dA*dT*dG*eA*eG*eG*eA*eG) [compound 155122]”, the “% INHIB” value is reported as 69%.
In the case of “155123 (antisense eG*e[5mC]*eA*eA*eA*dG*d[5mC]*dT*dG*dT*dG*dG*dT*dA*dA*eA*e[5mC]*eT*e[5mC]*eT) [compound 155123]”, the “% INHIB” value is reported as 91%.
For “209523 (antisense eG*eG*eG*e[5mC]*e[5mC]*dT*dT*d[5mC]*dA*dT*dT*dA*dT*dG*dA*eG*eA*eG*eG*eT) [compound 209523]”, the “% INHIB” value was 84%.
